Drawing on patent US11447449B2, “Inhibitors of indoleamine 2,3-dioxygenase and methods of their use” (BRISTOL-MYERS SQUIBB COMPANY, priority 2018, dated 2022), this text covers IC50 and solubility for five molecules.

Data set [1] deals with T1, human IDO1 (Homo sapiens, UniProt P14902).
T1 construct: expressed in transfected cells
The experiment in a line: Human IDO1/HEK293 cell IDO inhibition assay. In kind it is cell-based. Conditions: human IDO1/HEK293 cells, 20 hours; read-out: IDO1 HEK Human IC50. As for the experimental part:
HEK293 cells were transfected with a pCDNA-based mammalian expression vector harboring human IDO1 cDNA (NM 002164.2) by electroporation. They were cultured in medium (DMEM with 10% FBS) containing 1 mg/ml G418 for two weeks. Clones of HEK293 cells that stably expressed human IDO1 protein were selected and expanded for IDO inhibition assay.
The human IDO1/HEK293 cells were seeded at 10,000 cells per 50 μL per well with RPMI/phenol red free media contains 10% FBS in a 384-well black wall clear bottom tissue culture plate (Matrix Technologies LLC) 100 nL of certain concentration of compound was then added to each well using ECHO liquid handling systems. The cells were incubated for 20 hours in 37° C. incubator with 5% CO2.
The compound treatments were stopped by adding trichloroacetic acid (Sigma-Aldrich) to a final concentration at 0.2%. The cell plate was further incubated at 50° C. for 30 minute. The equal volume supernatant (20 μL) and 0.2% (w/v) Ehrlich reagent (4-dimethylaminobenzaldehyde, Sigma-Aldrich) in glacial acetic acid were mixed in a new clear bottom 384-well plate. This plate was then incubated at room temperature for 30 minute. The absorbance at 490 nm was measured on Envision plate reader. […]

Data set [2] can be described thus: Thermodynamic equilibrium aqueous solubility. The format is physicochemical. Conditions: thermodynamic from solid, 18-24 hours at room temperature, read-out: Solubility (μg/mL) pH 1.0, 4.0, 6.5, 7.4 buffers. As for the experimental part: Thermodynamic Equilibrium Aqueous Solubility Evaluation
The calibration standard is prepared by accurately weighing 0.3-0.7 mg of sample into 5 ml volumetric flask and then dissolved in pure methanol. If the standard material is not fully soluble in methanol, other solvents such as DMSO or mixed solvent systems can used.
The calibration standard is typically prepared fresh, before the start of the assay. Note the calibration standard must be fully dissolved. A single point calibration curve is used to determine the concentration of the final saturated solution.
The saturated solution is prepared by adding 1.0 ml of the appropriate aqueous solvent to the remaining portion/portions of material (˜1 mg/l ml) into the 1 dram submission vial. The solution is sonicated and vortexed for ˜30 seconds. The sample solution is placed on an orbiter that continually agitates the sample solutions for 18-24 hours at room temperature. The saturated solution is then transferred to a 1.5 ml eppendorf tube and centrifuged for ˜2 min. at 10000 rpms. The supernatant from the saturated solution is filtered, using a 0.45 μm PTFE syringe filter, into a 1.5 mL glass HPLC.
The standards and sample are analyzed by HPLC using either UV/Vis diode array or variable wavelength detection. Typical quantitation wavelengths are 210 or 254 nm; detection wavelength can be individually customized to optimize sensitivity. In addition to UV detection, mass spectrometry detection is recommended in order to confirm the Mass of the peak of interest.
Dilutions of saturated aqueous test solutions are performed if HPLC-UV peak is beyond the linear portion of the standard calibration curve. Typical dilutions include 100 μl/900 μl (×10) or 500 μl/500 μl (2×), as required.
HPLC grade solvents are employed.

For data set [3], the target named is T2, indoleamine 2,3-dioxygenase (IDO) (Homo sapiens, UniProt P14902).
T2 construct: endogenous in cells; host or cells: HeLa (ATCC CCL-2), stimulated with IFN-gamma at 25 ng/mL
T2 sequence (P14902 whole entry): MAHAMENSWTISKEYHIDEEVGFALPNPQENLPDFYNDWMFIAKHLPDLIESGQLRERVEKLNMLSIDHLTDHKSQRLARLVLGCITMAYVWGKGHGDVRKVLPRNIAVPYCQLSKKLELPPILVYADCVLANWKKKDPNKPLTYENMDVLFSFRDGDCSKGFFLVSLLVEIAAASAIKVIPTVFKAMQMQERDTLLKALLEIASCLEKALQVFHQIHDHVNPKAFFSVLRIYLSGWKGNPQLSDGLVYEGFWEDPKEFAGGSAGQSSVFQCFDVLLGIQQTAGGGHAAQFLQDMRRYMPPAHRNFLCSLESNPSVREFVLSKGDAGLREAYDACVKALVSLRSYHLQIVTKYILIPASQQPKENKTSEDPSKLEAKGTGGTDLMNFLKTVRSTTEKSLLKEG
The experiment in a line: HeLa cell-based indoleamine 2,3-dioxygenase (IDO) assay, kynurenine production. Conditions: HeLa cells, IFNγ 25 ng/mL, 48 hour incubation. The procedure:
Assessment of inhibitor activity in HeLa cell-based indoleamine 2,3-dioxygenase (IDO) assay:
HeLa (ATCC® CCL-2) cells were obtained from the ATCC® and cultured in Dulbecco's Modified Eagle Medium supplemented with 4.5 g/L glucose, […] (#10-013-CV, Corning), 2 mM L-alanyl-L-glutamine dipeptide (#35050-061, Gibco), 100U/mL penicillin, 100 μg/mL streptomycin (#SV30010, HyClone) and 10% fetal bovine serum (#SH30071.03 HyClone). Cells were maintained in a humidified incubator at 37° C. in 5% CO2.
IDO activity was assessed as a function of kynurenine production as follows: HeLa cells were seeded in a 96-well culture plate at a density of 5,000 cells/well and allowed to equilibrate overnight. After 24 hours, the media was aspirated and replaced with media containing IFNγ (#285-IF/CF, R&D Systems) at a final concentration of 25 ng/mL. A serial dilution of each test compound was added to the cells in a total volume of 200 μL of culture medium. […] Kynurenine concentrations were determined by measuring absorbance at 480 nm and calibrating against an L-kynurenine (#K8625, Sigma-Aldrich) standard curve using a SPECTRAMAX® M2e microplate reader (Molecular Devices). The percentage activity at each inhibitor concentration was determined and IC50 values assessed using nonlinear regression.

[4] abbreviates: aqueous buffer pH 1.0, simulated gastric fluid, pH 1.0 buffer.
[5] abbreviates: aqueous buffer pH 7.4, aqueous buffer, pH 7.4 buffer.
Where [6] appears, read: aqueous buffer pH 4.0, aqueous buffer, pH 4.0 buffer.
Where [7] appears, read: aqueous buffer pH 6.5, aqueous buffer, pH 6.5 buffer.

Structures are written as SMILES. Converted amounts (≈) assume the structure as drawn. Read-outs that look alike come from different tables or passages of the source.

T1 sequence (P14902 whole entry): as above

By IC50 is commonly meant the concentration at which inhibition is half-maximal. On to `CC[C@@H](CC(=O)O)c1ccc(N(CC(C)C)CC(C)C)c(NC(=O)Nc2ccc(C)cc2)c1` [Example 1E, (S)-3-(4-(diisobutylamino)-3-(3-(p-tolyl)ureido)phenyl)pentanoic Acid], for which the figures for the IC50 in data set [1] and in data set [3] were 3.1 nM and 4.1 nM, respectively. Further, the solubility in data set [2] (setting [4]) is 630 µg/mL (≈ 1390 µM); in data set [2] (setting [5]), 1 µg/mL (≈ 2.2 µM).
In the case of `CC[C@@H](CC(=O)OCOC(=O)CCCOP(=O)(O)O)c1ccc(N(CC(C)C)CC(C)C)c(NC(=O)Nc2ccc(C)cc2)c1` [Example 4, (S)-((4-(Phosphonooxy)butanoyl)oxy)methyl 3-(4-(diisobutylamino)-3-(3-(p-tolyl)ureido) Phenyl) Pentanoate], the solubility in data set [2] (setting [4]) was 24 µg/mL (≈ 36.9 µM); in data set [2] (setting [6]), more than 500 µg/mL; in data set [2] (setting [7]), more than 500 µg/mL; in data set [2] (setting [5]), 158 µg/mL (≈ 243 µM).
For `CCOP(=O)(O)OCOC(=O)C[C@H](CC)c1ccc(N(CC(C)C)CC(C)C)c(NC(=O)Nc2ccc(C)cc2)c1` [Example 9, (3S)-((Ethoxy(hydroxy)phosphoryl)oxy)methyl 3-(4-(diisobutylamino)-3-(3-(p-tolyl)ureido)phenyl)pentanoate], the solubility in data set [2] (setting [4]) was 215 µg/mL (≈ 363 µM); in data set [2] (setting [6]), more than 1100 µg/mL; in data set [2] (setting [7]), more than 2000 µg/mL; in data set [2] (setting [5]), more than 2000 µg/mL.
Regarding `CC[C@@H](CC(=O)OC(C)OC(=O)N(C)c1ncccc1COP(=O)(O)O)c1ccc(N(CC(C)C)CC(C)C)c(NC(=O)Nc2ccc(C)cc2)c1` (stereo partly drawn) [Example 20, (3S)-1-((Methyl(3-((phosphonooxy)methyl)pyridin-2-yl)carbamoyl)oxy)ethyl 3-(4-(diisobutylamino)-3-(3-(p-tolyl)ureido)phenyl)pentanoate], the solubility is 35 µg/mL (≈ 47.2 µM) in data set [2] (setting [4]), more than 500 µg/mL in data set [2] (setting [6]), more than 500 µg/mL in data set [2] (setting [7]) and more than 500 µg/mL in data set [2] (setting [5]).
Take `CC[C@@H](CC(=O)OCOC(=O)OCC(C)OP(=O)(O)O)c1ccc(N(CC(C)C)CC(C)C)c(NC(=O)Nc2ccc(C)cc2)c1` (stereo partly drawn) [Example 22, (3S)-(((2-(Phosphonooxy)propoxy)carbonyl)oxy)methyl 3-(4-(diisobutylamino)-3-(3-(p-tolyl)ureido)phenyl)pentanoate]: the solubility in data set [2] (setting [4]) was 15 µg/mL (≈ 22.5 µM); in data set [2] (setting [6]), more than 500 µg/mL; in data set [2] (setting [7]), 22 µg/mL (≈ 33 µM); in data set [2] (setting [5]), 16 µg/mL (≈ 24 µM).
